This note sets out measurements from patent US6503935B1, “Imidazoles and related compounds as α1A agonists” (Abbott Laboratories, priority 1998, dated 2003).

The target of experiment [1] is T1, α1A (rat submaxillary gland) (Rattus norvegicus, UniProt P43140).
T1 construct: α1A (rat submaxillary gland); from tissue; host or cells: rat submaxillary gland
T1 sequence (P43140 1-466): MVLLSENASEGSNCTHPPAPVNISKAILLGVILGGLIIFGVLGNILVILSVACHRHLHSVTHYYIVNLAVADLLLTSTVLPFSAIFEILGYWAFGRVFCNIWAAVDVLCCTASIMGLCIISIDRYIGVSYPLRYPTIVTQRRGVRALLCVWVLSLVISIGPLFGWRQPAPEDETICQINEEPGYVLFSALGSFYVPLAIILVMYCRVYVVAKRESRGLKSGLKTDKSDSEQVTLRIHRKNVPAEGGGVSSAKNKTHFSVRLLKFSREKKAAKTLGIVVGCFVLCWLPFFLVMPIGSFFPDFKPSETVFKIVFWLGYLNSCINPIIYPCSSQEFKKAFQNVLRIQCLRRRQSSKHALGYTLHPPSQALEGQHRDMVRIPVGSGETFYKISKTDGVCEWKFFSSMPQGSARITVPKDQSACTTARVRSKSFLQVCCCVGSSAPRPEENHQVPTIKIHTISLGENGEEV
Kind of experiment: Radioligand binding with [3H]-prazosin, α1A. On the procedure:
(§1) For purposes of discussing α1 adrenoceptor subtypes, the IUPHAR convention of using lower case letters to define molecular clones and upper case letters to indicate pharmacologically defined adrenoceptors has been followed. Compounds of formula I were evaluated in radioligand binding assays specific for α1A (rat submaxillary gland), α1b (hamster receptor expressed in mouse fibroblasts) and α1d (rat receptor expressed in mouse fibroblasts) using [^3H]-prazosin as the radioligand as described in Knepper, et al. J. Pharm.

Experiment [2] deals with T2, α1b (hamster receptor expressed in mouse fibroblasts) (Mesocricetus auratus, UniProt P18841).
T2 construct: expressed in transfected cells; host or cells: mouse fibroblasts
T2 sequence (P18841 1-515): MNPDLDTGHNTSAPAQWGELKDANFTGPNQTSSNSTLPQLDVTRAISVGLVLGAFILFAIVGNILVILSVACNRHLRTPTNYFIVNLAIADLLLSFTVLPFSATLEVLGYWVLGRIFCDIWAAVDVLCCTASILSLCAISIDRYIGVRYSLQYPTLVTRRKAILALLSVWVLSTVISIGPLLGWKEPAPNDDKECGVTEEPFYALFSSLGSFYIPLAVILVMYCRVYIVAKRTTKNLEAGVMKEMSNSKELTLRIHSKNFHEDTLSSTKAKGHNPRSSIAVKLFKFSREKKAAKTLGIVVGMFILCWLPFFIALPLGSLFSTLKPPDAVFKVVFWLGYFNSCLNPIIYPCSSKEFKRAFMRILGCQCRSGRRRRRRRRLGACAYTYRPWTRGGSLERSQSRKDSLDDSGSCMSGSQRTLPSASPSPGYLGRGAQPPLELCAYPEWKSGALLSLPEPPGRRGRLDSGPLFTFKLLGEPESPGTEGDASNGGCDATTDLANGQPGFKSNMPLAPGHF
The experiment can be described thus: Radioligand binding with [3H]-prazosin, α1b. The procedure: as §1

For experiment [3], the target named is T3, α1d (rat receptor expressed in mouse fibroblasts) (Rattus norvegicus, UniProt P23944).
T3 construct: expressed in transfected cells; host or cells: mouse fibroblasts
T3 sequence (P23944 1-561): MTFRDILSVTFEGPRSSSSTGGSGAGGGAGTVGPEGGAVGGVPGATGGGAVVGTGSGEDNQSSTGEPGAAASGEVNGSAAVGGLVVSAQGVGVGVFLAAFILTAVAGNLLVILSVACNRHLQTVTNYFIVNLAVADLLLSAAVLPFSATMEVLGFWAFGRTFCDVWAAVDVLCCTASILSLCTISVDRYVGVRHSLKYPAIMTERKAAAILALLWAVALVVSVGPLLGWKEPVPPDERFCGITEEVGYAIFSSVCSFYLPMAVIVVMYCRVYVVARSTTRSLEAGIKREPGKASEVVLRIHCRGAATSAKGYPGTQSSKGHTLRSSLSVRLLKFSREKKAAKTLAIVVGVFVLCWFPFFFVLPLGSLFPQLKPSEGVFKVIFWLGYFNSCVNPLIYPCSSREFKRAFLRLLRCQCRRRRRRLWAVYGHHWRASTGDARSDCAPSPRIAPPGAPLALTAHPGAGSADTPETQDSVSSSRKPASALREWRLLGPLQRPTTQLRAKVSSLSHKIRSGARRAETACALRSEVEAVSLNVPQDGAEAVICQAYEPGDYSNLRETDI
Kind of experiment: Radioligand binding with [3H]-prazosin, α1d. On the procedure: as §1

The target in the next experiment is T4, α1A (rabbit urethra) (Oryctolagus cuniculus, UniProt O02824).
T4 construct: tested for α1A functional activity using rabbit urethra; from tissue; host or cells: rabbit urethra
T4 sequence (O02824 1-466): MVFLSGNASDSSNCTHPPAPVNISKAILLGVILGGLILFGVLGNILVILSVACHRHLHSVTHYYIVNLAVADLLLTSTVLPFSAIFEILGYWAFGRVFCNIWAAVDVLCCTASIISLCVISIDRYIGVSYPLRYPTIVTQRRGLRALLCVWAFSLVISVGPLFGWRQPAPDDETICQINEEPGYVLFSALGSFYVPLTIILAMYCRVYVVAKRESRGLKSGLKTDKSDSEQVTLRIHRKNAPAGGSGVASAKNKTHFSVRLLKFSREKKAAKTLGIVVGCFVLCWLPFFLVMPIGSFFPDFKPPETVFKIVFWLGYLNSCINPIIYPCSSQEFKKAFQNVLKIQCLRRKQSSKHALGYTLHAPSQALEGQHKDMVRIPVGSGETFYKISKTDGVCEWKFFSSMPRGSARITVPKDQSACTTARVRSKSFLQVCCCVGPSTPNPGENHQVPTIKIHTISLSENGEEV
Kind of experiment: Agonist contraction of smooth muscle tissue, rabbit urethra. The following applies: for EC50: read-out: Agonist Tissue Response (pD2) α1A (rab ureth) (converted). It counts as cell-based. The procedure:
Most of the compounds were tested for α1A functional activity using rabbit urethra as follows. Female New Zealand white rabbits (2.0-3.5 Kg) were sedated with CO2 and decapitated. […] Subsequent experimental conditions were as described above for the other tissues. Agonist concentration response curves were cumulative except for the vas deferens assay in which the transient response made such measurements impractical.

The target of the next experiment is T5, α1B (rat spleen) (Rattus norvegicus, UniProt P15823).
T5 construct: α1B (rat spleen) and α1D (rat aorta) receptors; from tissue; host or cells: rat spleen
T5 sequence (P15823 1-515): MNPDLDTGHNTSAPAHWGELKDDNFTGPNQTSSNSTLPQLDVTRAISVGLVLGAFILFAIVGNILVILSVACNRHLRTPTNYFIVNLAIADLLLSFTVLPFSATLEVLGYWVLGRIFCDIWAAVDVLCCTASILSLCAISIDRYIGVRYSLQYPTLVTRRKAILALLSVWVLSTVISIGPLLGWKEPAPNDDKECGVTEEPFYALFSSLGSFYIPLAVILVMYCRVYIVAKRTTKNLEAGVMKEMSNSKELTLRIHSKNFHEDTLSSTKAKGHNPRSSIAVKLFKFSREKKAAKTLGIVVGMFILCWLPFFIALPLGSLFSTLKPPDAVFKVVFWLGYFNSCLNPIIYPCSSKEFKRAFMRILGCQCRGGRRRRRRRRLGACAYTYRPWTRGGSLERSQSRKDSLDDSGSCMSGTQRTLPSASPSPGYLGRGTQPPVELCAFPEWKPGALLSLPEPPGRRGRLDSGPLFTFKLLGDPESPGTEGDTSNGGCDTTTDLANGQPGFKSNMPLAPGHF
Kind of experiment: Agonist contraction of smooth muscle tissue, rat spleen. It counts as cell-based. The following applies: for EC50: read-out: Agonist Tissue Response (pD2) α1B (rat spleen) (converted).

The next experiment concerns the target T6, α1D (rat aorta) (Rattus norvegicus, UniProt P23944).
T6 construct: α1B (rat spleen) and α1D (rat aorta) receptors; from tissue; host or cells: rat aorta strips, endothelium removed
T6 sequence (P23944 1-561): T3 sequence (P23944 1-561)
Kind of experiment: Agonist contraction of smooth muscle tissue, rat aorta. The experiment is classed as cell-based. The following applies: for EC50: read-out: Agonist Tissue Response (pD2) α1D (rat aorta) (converted).

Where [4] appears, read: rat submaxillary gland, [3H]-prazosin.
Where [5] appears, read: hamster receptor expressed in mouse fibroblasts, [3H]-prazosin, read-out: Radioligand Binding Ki α1b (Hamster).
[6] abbreviates: rat receptor expressed in mouse fibroblasts, [3H]-prazosin, read-out: Radioligand Binding Ki α1d (Rat).
[7] abbreviates: Radioligand Binding Ki α1d (Rat), rat receptor expressed in mouse fibroblasts, [3H]-prazosin.

Structures can show the parent of a compound that is named as a salt. Where two headings read alike, the source gives them in different places. Where only a bound is given, the exact number is not on record here.

As usually defined, the Ki is a dissociation constant, usually derived from enzyme kinetics or from competition with a known ligand. Turning to “5-Chloro-N-[5-(1H-imidazol-5-yl)-5,6,7,8-tetrahydro-1-naphthalenyl]-3-methyl-2,3-dihydro-1-benzothiophene-2-sulfonamide [Example 77]”, the Ki was determined as 0.65 µM in experiment [1] (setting [4]), 0.32 µM in experiment [2] (setting [5]) and 0.111 µM in experiment [3] (setting [6]).
On to `Cn1cnc(C2CCCc3c2ccc(O)c3NS(C)(=O)=O)c1` (centres unmarked) [Example 5, N-[2-hydroxy-5-(1-methyl-1H-imidazol-4-yl)-5,6,7,8-tetrahydro-1-naphthalenyl]methanesulfonamide, hydrochloride], for which the values for the Ki in experiment [1], in experiment [2] (read-out: Radioligand Binding Ki α1b (Hamster)) and in experiment [3] (read-out: Radioligand Binding Ki α1d (Rat)) were 0.136 µM, 6.14 µM and 1.55 µM, respectively. The EC50 is 0.513 µM at α1A (rabbit urethra), 9.33 µM on α1B (rat spleen) and 3.31 µM on α1D (rat aorta).
For the molecule `Cc1ccc(NS(C)(=O)=O)c2c1C(c1c[nH]cn1)CCC2` (centres unmarked) [Example 23, N-[5,6,7,8-tetrahydro-5-(1H-imidazol-4-yl)-4-methyl-1-naphthalenyl]methanesulfonamide, maleate], the Ki in experiment [1] (setting [4]) was determined as 0.391 µM; in experiment [3] (setting [6]), 2.67 µM. Further, the EC50 on α1A (rabbit urethra) (rabbit urethra) is 39.8 µM; at α1B (rat spleen) (rat spleen) it was > 1000 µM; on α1D (rat aorta) (rat aorta, endothelium removed) it was > 1000 µM.
For the molecule `CCS(=O)(=O)Nc1cccc(C(C)c2c[nH]cn2)c1` (centres unmarked) [Example 37, N-{3-[1-(1H-imidazol-4-yl)ethyl]phenyl}ethanesulfonamide, maleate], the results for the Ki in experiment [1] (setting [4]), in experiment [2] and in experiment [3] (setting [7]) were 0.772 µM, 2.28 µM and 0.452 µM, respectively. For the same molecule, the EC50 at α1A (rabbit urethra) (rabbit urethra) is 5.37 µM.
Turning to `CS(=O)(=O)Nc1ccc(F)c(Cc2c[nH]cn2)c1` [Example 41, N-[4-fluoro-3-(1H-imidazol-4-ylmethyl)phenyl]methanesulfonamide, maleate], the Ki in experiment [1] (setting [4]) was found to be 0.752 µM; in experiment [2], 1.63 µM; in experiment [3] (setting [7]), 0.348 µM. In addition, the EC50 at α1A (rabbit urethra) (rabbit urethra) was 13.5 µM.
In the case of `CS(=O)(=O)Nc1ccc(Cl)c2c1CCCC2c1c[nH]cn1` (centres unmarked) [Example 43, N-[4-chloro-5-(1H-imidazol-4-yl)-5,6,7,8-tetrahydro-1-naphthalenyl]methanesulfonamide, maleate], the Ki in experiment [1] (setting [4]) worked out at 0.445 µM; in experiment [3] (setting [6]), 2.86 µM. Also, the EC50 at α1A (rabbit urethra) (rabbit urethra) is 44.7 µM; on α1B (rat spleen) (rat spleen) it was > 1000 µM; on α1D (rat aorta) (rat aorta, endothelium removed), > 1000 µM.
For `CCS(=O)(=O)Nc1cccc(C(=C2CCCCC2)c2c[nH]cn2)c1` [Example 56], the Ki in experiment [1] (setting [4]) was 0.229 µM; in experiment [2] it was 0.0151 µM; in experiment [3] (setting [7]), 0.00198 µM. The EC50 at α1A (rabbit urethra) (rabbit urethra) was 16.2 µM; on α1D (rat aorta) (rat aorta, endothelium removed), > 1000 µM.
For `O=S(=O)(CCCCl)Nc1cccc2c1CCCC2c1cnc[nH]1` (centres unmarked) [Example 65, 3-Chloro-N-[5-(1H-imidazol-5-yl)-5,6,7,8-tetrahydro-1-naphthalenyl]-1-propanesulfonamide], the Ki was 1.16 µM in experiment [1] (setting [4]), 4.4 µM in experiment [2] (setting [5]) and 5.3 µM in experiment [3] (setting [6]).
Consider `Cn1cnc(S(=O)(=O)Nc2cccc3c2CCCC3c2cnc[nH]2)c1` (centres unmarked) [Example 66, N-[5-(1H-imidazol-5-yl)-5,6,7,8-tetrahydro-1-naphthalenyl]-1-methyl-1H-imidazole-4-sulfonamide], for which the Ki was 0.366 µM in experiment [1] (setting [4]), 1.13 µM in experiment [2] (setting [5]) and 0.458 µM in experiment [3] (setting [6]).
In the same order, the values of `COc1ccc(S(=O)(=O)Nc2cccc3c2CCCC3c2cnc[nH]2)cc1` (centres unmarked) [Example 71, N-[5-(1H-imidazol-5-yl)-5,6,7,8-tetrahydro-1-naphthalenyl]-4-methoxybenzenesulfonamide] are 1.54 µM, 1.05 µM and 2.29 µM.
Turning to `O=S(=O)(Nc1cccc2c1CCCC2c1cnc[nH]1)c1cccc2cccnc12` (centres unmarked) [Example 73, N-[5-(1H-imidazol-5-yl)-5,6,7,8-tetrahydro-1-naphthalenyl]-8-quinolinesulfonamide], the Ki turned out to be 1.02 µM in experiment [1] (setting [4]), 1.19 µM in experiment [2] (setting [5]) and 2.23 µM in experiment [3] (setting [6]). In addition, the EC50 at α1A (rabbit urethra) (rabbit urethra) is 17.8 µM.
For “N-[5,6,7,8-tetrahydro-5-(1H-imidazol-4-yl)-1-naphthalenyl]-2-methylethanesulfonamide, maleate [Example 18]”, the results for the inhibition constant Ki in experiment [1] (setting [4]) and in experiment [3] (setting [6]) were 1.14 µM and 2.05 µM, respectively. The “Agonist Tissue Response (pD2) α1A (rab ureth)” value on α1A (rabbit urethra) (rabbit urethra) is recorded as 5.17. Further, the “Agonist Tissue Response (pD2) α1B (rat spleen)” value at α1B (rat spleen) (rat spleen) turned out to be 4.85. Moreover, at α1D (rat aorta) (rat aorta, endothelium removed), the “Agonist Tissue Response (pD2) α1D (rat aorta)” value stood at 4.96.
